How the values were obtained:
[1] = target: T1, Alpha-2C adrenergic receptor (Homo sapiens, UniProt P18825); assay: DRUGMATRIX: Adrenergic Alpha-2C radioligand binding (ligand: [3H] MK-912); format: cell membranes, Sf9, Membrane; conditions: sf9
T1 sequence (P18825 whole entry): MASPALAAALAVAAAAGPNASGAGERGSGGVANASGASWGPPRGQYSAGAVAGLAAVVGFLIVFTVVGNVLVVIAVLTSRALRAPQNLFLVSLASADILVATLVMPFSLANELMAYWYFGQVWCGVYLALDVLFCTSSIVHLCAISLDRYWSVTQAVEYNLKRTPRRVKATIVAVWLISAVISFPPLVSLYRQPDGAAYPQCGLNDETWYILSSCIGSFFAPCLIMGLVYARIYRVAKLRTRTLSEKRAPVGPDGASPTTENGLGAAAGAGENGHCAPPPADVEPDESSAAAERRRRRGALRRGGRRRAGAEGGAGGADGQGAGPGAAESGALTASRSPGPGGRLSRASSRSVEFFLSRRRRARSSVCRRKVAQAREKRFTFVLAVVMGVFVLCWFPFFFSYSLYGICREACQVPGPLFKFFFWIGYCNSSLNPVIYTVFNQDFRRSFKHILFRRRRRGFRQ

[2] = DRUGMATRIX: Atrial Natriuretic Factor (ANF) radioligand binding (ligand: [125I] ANF (rat)); format: cell membranes, Cavia porcellus, Dunkin-Hartley, Adrenal gland, Membrane; conditions: Not Active = under 50% inhibition at 10 µM
[3] = DRUGMATRIX: Serotonin (5-Hydroxytryptamine) 5-HT3 radioligand binding (ligand: [3H] GR-65630); format: cell membranes, Membrane; conditions: hek293; Not Active = under 50% inhibition at 10 µM
[4] = target: T2, Vasoactive intestinal polypeptide receptor 1 (Homo sapiens, UniProt P32241); format: cell membranes, Membrane; conditions: ht-29; also: in other assays of this panel Not Active means under 50% inhibition at 10 µM
T2 sequence (P32241 whole entry): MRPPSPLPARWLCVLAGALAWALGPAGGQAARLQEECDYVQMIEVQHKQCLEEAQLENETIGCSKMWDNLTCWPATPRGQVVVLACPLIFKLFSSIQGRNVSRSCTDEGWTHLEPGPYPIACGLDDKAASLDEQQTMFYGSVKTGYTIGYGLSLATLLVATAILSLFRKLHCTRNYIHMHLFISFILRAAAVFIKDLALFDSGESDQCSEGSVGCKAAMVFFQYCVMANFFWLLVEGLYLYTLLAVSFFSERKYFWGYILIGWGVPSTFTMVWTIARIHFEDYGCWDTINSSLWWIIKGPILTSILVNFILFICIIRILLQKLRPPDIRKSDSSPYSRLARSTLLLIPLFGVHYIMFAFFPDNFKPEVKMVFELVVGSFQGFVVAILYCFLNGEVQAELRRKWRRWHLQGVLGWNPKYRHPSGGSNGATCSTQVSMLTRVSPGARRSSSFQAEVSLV

[5] = target: T3, C-X-C chemokine receptor type 1 (Homo sapiens, UniProt P25024); also: in other assays of this panel Not Active means under 50% inhibition at 10 µM
T3 sequence (P25024 whole entry): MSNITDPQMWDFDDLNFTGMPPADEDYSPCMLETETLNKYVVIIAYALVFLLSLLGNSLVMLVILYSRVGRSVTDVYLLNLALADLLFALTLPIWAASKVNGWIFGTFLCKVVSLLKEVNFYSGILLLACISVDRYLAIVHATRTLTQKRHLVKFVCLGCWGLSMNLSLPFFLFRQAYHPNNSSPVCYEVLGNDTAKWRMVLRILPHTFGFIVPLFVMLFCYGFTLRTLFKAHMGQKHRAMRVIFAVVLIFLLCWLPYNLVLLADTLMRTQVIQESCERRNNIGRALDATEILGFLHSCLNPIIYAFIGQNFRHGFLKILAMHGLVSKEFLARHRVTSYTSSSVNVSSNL

[6] = target: T4, 3-hydroxy-3-methylglutaryl-coenzyme A reductase (Homo sapiens, UniProt P04035); set-up: species or system Escherichia coli;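 also: enzyme inhibition assay of HMG-CoA reductase using radiolabeled [14C]HMG-CoA as substrate; in other assays of this panel Not Active means under 50% inhibition at 10 µM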
T4 sequence (P04035 whole entry): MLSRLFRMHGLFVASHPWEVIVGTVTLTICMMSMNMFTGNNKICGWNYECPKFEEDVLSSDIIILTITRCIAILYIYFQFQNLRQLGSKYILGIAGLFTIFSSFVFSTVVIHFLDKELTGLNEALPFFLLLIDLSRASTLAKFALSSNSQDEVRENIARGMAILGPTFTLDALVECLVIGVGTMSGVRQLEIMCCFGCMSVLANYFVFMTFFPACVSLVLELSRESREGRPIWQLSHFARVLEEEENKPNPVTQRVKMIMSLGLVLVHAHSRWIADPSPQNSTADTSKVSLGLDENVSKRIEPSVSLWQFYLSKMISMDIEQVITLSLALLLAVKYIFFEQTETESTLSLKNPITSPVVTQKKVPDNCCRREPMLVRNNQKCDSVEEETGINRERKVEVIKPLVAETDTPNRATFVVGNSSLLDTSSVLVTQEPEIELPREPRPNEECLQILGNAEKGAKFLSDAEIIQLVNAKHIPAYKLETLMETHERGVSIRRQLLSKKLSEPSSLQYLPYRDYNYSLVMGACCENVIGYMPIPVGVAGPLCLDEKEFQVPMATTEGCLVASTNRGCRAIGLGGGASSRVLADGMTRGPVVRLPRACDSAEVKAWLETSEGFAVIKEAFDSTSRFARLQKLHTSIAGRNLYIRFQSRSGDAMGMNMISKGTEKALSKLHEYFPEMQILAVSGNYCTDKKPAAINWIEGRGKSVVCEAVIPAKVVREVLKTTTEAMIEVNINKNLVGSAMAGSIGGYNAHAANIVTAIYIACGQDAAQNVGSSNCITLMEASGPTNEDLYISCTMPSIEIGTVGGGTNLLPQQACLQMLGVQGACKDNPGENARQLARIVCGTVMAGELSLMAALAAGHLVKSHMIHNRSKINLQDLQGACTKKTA

Cathepsin G = target: T5, Cathepsin G (Homo sapiens, UniProt P08311); format: tissue-based; conditions: neutrophil;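 also: inhibition of Cathepsin G enzyme activity, tested on an AMC-conjugated peptide substrate; in other assays of this panel Not Active means under 50% inhibition at 10 µM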
T5 sequence (P08311 whole entry): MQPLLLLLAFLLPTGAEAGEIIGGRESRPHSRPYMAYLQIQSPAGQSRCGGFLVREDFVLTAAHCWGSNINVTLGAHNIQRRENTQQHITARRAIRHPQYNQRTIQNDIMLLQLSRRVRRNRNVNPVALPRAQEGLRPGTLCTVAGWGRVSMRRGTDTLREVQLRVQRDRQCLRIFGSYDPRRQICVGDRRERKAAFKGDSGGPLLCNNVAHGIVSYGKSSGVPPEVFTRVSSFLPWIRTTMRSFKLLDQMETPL

[7] = target: Receptor tyrosine-protein kinase erbB-2 (Homo sapiens, UniProt P04626); assay: biochemical; format: cell-based, Insect cells
[8] = target: 5-hydroxytryptamine receptor 1B (Rattus norvegicus, UniProt P28564); format: cell membranes, Wistar, Cerebral cortex, Membrane; also: in other assays of this panel Not Active means under 50% inhibition at 10 µM
Sequence of 5-hydroxytryptamine receptor 1B (P28564 whole entry): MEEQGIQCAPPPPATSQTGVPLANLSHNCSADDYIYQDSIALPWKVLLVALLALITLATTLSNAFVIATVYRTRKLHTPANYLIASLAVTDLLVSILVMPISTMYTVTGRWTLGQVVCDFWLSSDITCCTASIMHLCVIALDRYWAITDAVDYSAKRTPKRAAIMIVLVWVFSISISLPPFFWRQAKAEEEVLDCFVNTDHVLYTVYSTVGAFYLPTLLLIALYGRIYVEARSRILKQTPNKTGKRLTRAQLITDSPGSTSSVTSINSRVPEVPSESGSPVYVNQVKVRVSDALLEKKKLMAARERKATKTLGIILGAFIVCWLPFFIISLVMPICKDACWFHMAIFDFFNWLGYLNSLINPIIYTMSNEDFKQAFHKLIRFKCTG

Sequence of Receptor tyrosine-protein kinase erbB-2 (P04626 whole entry): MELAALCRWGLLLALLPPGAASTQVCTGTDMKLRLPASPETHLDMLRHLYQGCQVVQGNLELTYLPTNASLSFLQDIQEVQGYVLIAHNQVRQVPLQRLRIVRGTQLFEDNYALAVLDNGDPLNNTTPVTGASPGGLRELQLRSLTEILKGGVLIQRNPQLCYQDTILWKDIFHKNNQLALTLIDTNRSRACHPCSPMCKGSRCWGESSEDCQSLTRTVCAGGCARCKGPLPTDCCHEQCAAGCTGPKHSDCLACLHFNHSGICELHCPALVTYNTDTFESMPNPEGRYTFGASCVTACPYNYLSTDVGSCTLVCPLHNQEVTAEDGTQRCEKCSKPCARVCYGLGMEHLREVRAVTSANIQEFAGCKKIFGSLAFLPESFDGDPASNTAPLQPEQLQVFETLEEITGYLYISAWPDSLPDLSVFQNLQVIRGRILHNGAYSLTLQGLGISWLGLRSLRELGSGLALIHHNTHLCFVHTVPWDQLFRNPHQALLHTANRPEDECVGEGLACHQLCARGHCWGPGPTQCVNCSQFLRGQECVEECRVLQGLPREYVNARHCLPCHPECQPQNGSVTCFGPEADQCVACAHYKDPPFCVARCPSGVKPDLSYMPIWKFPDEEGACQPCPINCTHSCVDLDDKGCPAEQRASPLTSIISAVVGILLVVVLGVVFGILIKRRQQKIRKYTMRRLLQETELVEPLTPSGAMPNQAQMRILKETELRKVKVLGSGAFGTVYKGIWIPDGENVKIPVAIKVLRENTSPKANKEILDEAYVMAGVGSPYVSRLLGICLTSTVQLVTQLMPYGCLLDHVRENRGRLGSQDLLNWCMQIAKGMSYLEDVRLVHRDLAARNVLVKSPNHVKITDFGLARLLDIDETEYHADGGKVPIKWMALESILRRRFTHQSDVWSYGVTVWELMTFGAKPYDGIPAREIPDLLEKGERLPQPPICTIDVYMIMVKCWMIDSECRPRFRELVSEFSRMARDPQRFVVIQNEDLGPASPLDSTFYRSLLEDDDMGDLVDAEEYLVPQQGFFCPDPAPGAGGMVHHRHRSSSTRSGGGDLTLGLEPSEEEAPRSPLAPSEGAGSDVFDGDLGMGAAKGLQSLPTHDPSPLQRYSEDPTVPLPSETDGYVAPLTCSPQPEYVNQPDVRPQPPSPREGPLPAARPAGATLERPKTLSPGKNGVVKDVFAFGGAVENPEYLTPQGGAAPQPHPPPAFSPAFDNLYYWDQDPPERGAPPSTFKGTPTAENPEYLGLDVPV

CC1=C(/C=C/C(C)=C/C=C/C(C)=C\C(=O)O)C(C)(C)CCC1 [ISOTRETINOIN]
Not Active: IC50 [1] | IC50 [2] | Ki [2] | IC50 [3] | Ki [3] | IC50 [4] | IC50 [5] | IC50 [6] | IC50 (Cathepsin G) | IC50 ([7]; insect cells) | IC50 [8]

CO[C@@H]1[C@@H](O[C@@H]2O[C@H](C)[C@@H](O[C@H]3C[C@@](C)(O)[C@@H](OC(=O)CC(C)C)[C@H](C)O3)[C@H](N(C)C)[C@H]2O)[C@@H](CC=O)C[C@@H](C)[C@@H](O)/C=C/C=C/C[C@@H](C)OC(=O)C[C@H]1O [KITASAMYCIN]
Not Active: IC50 [1] | IC50 [2] | Ki [2] | IC50 [3] | Ki [3] | IC50 [4] | IC50 [5] | IC50 [6] | IC50 (Cathepsin G) | IC50 ([7]; insect cells) | IC50 [8]

CC(CCc1ccccc1)NCC(O)c1ccc(O)c(C(N)=O)c1 (configuration not stated) [LABETALOL]
Not Active: IC50 [1] | IC50 [2] | Ki [2] | IC50 [3] | Ki [3] | IC50 [4] | IC50 [5] | IC50 [6] | IC50 (Cathepsin G) | IC50 ([7]; insect cells) | IC50 [8]

Nc1nnc(-c2cccc(Cl)c2Cl)c(N)n1 [LAMOTRIGINE]
Not Active: IC50 [1] | IC50 [2] | Ki [2] | IC50 [3] | Ki [3] | IC50 [4] | IC50 [5] | IC50 [6] | IC50 (Cathepsin G) | IC50 ([7]; insect cells) | IC50 [8]

CCC[C@@H]1C[C@@H](C(=O)N[C@@H]([C@H]2O[C@H](SC)[C@H](O)[C@@H](O)[C@H]2O)[C@@H](C)O)N(C)C1 [LINCOMYCIN]
Not Active: IC50 [1] | IC50 [2] | Ki [2] | IC50 [3] | Ki [3] | IC50 [4] | IC50 [5] | IC50 [6] | IC50 (Cathepsin G) | IC50 ([7]; insect cells) | IC50 [8]

NCCCC[C@H](N[C@@H](CCc1ccccc1)C(=O)O)C(=O)N1CCC[C@H]1C(=O)O [LISINOPRIL ANHYDROUS]
Not Active: IC50 [1] | IC50 [2] | Ki [2] | IC50 [3] | Ki [3] | IC50 [4] | IC50 [5] | IC50 [6] | IC50 (Cathepsin G) | IC50 ([7]; insect cells) | IC50 [8]

COS(C)(=O)=O [METHANESULFONIC ACID METHYL ESTER]
Not Active: IC50 [1] | IC50 [2] | Ki [2] | IC50 [3] | Ki [3] | IC50 [4] | IC50 [5] | IC50 [6] | IC50 (Cathepsin G) | IC50 ([7]; insect cells) | IC50 [8]

COC(=O)c1ccc(O)cc1 [METHYLPARABEN]
Not Active: IC50 [1] | IC50 [2] | Ki [2] | IC50 [3] | Ki [3] | IC50 [4] | IC50 [5] | IC50 [6] | IC50 (Cathepsin G) | IC50 ([7]; insect cells) | IC50 [8]

C[C@](N)(Cc1ccc(O)cc1)C(=O)O [METYROSINE]
Not Active: IC50 [1] | IC50 [2] | Ki [2] | IC50 [3] | Ki [3] | IC50 [4] | IC50 [5] | IC50 [6] | IC50 (Cathepsin G) | IC50 ([7]; insect cells) | IC50 [8]

Clc1ccc(C(c2ccccc2Cl)C(Cl)Cl)cc1 (configuration not stated) [MITOTANE]
Not Active: IC50 [1] | IC50 [2] | Ki [2] | IC50 [3] | Ki [3] | IC50 [4] | IC50 [5] | IC50 [6] | IC50 (Cathepsin G) | IC50 ([7]; insect cells) | IC50 [8]

O=C1c2c(O)ccc(O)c2C(=O)c2c(NCCNCCO)ccc(NCCNCCO)c21 [MITOXANTRONE]
Not Active: IC50 [1] | IC50 [2] | Ki [2] | IC50 [3] | Ki [3] | IC50 [4] | IC50 [5] | IC50 [6] | IC50 (Cathepsin G) | IC50 [8]
2040 nM: IC50 ([7]; read-out: IC50)

COc1c(C)c2c(c(O)c1C/C=C(\C)CCC(=O)OCCN1CCOCC1)C(=O)OC2 [MYCOPHENOLATE MOFETIL]
Not Active: IC50 [1] | IC50 [2] | Ki [2] | IC50 [3] | Ki [3] | IC50 [4] | IC50 [5] | IC50 [6] | IC50 (Cathepsin G) | IC50 ([7]; insect cells) | IC50 [8]

Source: ChEMBL document CHEMBL1909046, “DrugMatrix in vitro pharmacology data”
